Experimental data taken from ChEMBL document CHEMBL1240532, “Spiroindolones, a potent compound class for the treatment of malaria” (Science, 2010).
Active and inactive are the calls of the source. No cut-off for these calls is given here.

Key:
[1] = test system: Plasmodium vivax; assay: Antimalarial activity against Plasmodium vivax isolates after 42 hrs; type: functional, organism-based
[2] = test system: Plasmodium falciparum; assay: Antimalarial activity against Plasmodium falciparum 3D7 assessed as parasite growth inhibition at 1.6 nM after24 hrs by [3H]hypoxanthin incorporation assay; type: functional
[3] = test system: Plasmodium falciparum; assay: Antimalarial activity against Plasmodium falciparum D6 after 48 hrs incubation by [3H]hypoxanthin incorporation assay
[4] = target: Voltage-gated inwardly rectifying potassium channel KCNH2 (Homo sapiens, UniProt Q12809); assay: Inhibition of human ERG by patch clamp method
[5] = target: Adenosine receptor A2a (Homo sapiens, UniProt P29274); assay: Binding affinity to human recombinant adenosine 2a receptor
[6] = Binding affinity to human recombinant adenosine transporter
[7] = target: B2 bradykinin receptor (Homo sapiens, UniProt P30411); assay: Binding affinity to human recombinant bradykinin B2 receptor
B2 bradykinin receptor, sequence (P30411 whole entry): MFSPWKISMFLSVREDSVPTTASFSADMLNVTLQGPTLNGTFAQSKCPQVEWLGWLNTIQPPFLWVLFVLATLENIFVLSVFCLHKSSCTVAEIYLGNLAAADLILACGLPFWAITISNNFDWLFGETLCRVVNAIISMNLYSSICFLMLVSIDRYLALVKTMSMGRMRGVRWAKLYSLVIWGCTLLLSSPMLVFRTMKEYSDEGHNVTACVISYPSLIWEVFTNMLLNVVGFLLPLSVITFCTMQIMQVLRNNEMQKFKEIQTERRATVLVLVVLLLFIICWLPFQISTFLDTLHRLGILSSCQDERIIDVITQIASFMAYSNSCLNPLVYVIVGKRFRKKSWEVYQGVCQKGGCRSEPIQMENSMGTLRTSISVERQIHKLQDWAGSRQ

[8] = target: Gastrin/cholecystokinin type B receptor (Homo sapiens, UniProt P32239); assay: Binding affinity to human recombinant cholecystokinin B receptor
[9] = target: D(2) dopamine receptor (Homo sapiens, UniProt P14416); assay: Binding affinity to human recombinant dopamine D2 receptor
D(2) dopamine receptor, sequence (P14416 whole entry): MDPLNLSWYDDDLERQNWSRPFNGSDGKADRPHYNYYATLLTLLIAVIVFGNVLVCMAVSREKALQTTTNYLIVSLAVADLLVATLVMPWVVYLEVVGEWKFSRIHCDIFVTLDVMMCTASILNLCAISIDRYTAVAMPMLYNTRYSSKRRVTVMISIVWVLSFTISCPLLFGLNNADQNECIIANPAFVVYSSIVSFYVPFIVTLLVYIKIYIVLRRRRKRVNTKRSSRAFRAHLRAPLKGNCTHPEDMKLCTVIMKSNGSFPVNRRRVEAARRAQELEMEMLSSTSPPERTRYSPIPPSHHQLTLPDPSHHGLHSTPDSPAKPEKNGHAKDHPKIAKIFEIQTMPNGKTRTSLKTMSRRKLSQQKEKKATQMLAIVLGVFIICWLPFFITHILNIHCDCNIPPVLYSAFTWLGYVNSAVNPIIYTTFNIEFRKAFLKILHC

[10] = target: D(3) dopamine receptor (Homo sapiens, UniProt P35462); assay: Binding affinity to human recombinant dopamine D3 receptor
[11] = target: Sodium-dependent dopamine transporter (Homo sapiens, UniProt Q01959); assay: Binding affinity to human recombinant dopamine transporter
Sodium-dependent dopamine transporter, sequence (Q01959 whole entry): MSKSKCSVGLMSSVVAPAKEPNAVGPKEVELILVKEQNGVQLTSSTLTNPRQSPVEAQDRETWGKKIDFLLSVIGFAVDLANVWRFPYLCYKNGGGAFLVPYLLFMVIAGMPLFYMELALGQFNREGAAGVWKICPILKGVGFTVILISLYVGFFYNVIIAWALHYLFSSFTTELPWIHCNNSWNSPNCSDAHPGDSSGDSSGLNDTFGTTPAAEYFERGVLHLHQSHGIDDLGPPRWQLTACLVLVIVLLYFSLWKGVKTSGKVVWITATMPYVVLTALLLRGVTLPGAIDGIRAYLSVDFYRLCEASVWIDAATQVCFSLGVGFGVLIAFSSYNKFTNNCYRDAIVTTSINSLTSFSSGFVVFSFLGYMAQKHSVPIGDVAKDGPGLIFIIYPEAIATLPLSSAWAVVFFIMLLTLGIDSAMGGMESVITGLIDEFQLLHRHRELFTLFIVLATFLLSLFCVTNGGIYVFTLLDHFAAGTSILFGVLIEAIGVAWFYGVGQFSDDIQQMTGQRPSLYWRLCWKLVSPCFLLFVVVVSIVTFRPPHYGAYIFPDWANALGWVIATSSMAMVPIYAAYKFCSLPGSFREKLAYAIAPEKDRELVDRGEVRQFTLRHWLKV

[12] = target: Estrogen receptor beta (Homo sapiens, UniProt Q92731); assay: Binding affinity to human recombinant ERbeta
Estrogen receptor beta, sequence (Q92731 whole entry): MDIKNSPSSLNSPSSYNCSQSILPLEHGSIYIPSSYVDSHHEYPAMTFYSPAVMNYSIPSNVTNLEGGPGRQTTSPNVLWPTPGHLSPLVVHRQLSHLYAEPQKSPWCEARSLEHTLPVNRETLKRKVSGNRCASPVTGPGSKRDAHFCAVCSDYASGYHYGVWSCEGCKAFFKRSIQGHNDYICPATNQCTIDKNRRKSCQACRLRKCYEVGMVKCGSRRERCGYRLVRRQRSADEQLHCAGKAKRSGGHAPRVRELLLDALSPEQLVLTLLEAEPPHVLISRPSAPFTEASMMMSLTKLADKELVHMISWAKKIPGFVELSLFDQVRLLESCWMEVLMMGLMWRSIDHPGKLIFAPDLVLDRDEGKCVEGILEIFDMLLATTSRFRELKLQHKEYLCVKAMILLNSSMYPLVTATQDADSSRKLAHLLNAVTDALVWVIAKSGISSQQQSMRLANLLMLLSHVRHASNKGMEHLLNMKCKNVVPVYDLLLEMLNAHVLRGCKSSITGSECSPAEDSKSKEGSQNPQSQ

[13] = target: Muscarinic acetylcholine receptor M1 (Homo sapiens, UniProt P11229); assay: Binding affinity to human recombinant muscarinic M1 receptor
Muscarinic acetylcholine receptor M1, sequence (P11229 whole entry): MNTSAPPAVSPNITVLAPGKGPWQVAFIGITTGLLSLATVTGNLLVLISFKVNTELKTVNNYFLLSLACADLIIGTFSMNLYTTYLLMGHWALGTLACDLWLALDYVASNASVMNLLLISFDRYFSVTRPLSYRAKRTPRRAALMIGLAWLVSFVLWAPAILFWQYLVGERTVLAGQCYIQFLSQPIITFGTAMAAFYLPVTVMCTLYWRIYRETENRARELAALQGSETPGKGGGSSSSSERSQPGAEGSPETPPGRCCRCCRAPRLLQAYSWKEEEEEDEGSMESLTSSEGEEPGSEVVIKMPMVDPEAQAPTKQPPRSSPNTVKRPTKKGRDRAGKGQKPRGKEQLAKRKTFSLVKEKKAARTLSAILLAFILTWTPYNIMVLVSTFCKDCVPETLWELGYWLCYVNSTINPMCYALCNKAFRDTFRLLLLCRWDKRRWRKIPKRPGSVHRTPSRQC

[14] = target: Muscarinic acetylcholine receptor M2 (Homo sapiens, UniProt P08172); assay: Binding affinity to human recombinant muscarinic M2 receptor
[15] = target: Substance-P receptor (Homo sapiens, UniProt P25103); assay: Binding affinity to human recombinant neurokinin NK1 receptor
Substance-P receptor, sequence (P25103 whole entry): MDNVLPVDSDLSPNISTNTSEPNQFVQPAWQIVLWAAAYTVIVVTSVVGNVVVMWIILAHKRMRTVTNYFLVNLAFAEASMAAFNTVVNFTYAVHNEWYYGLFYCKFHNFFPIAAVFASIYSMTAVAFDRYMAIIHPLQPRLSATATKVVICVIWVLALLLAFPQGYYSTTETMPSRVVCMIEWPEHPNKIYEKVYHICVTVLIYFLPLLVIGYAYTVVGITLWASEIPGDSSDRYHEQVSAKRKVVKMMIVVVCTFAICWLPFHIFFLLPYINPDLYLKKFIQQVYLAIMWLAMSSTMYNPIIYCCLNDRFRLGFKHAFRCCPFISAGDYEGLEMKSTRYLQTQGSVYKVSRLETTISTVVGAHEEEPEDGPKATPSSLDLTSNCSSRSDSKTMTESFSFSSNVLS

[16] = target: Neuropeptide Y receptor type 1 (Homo sapiens, UniProt P25929); assay: Binding affinity to human recombinant neuropeptide Y1 receptor
Neuropeptide Y receptor type 1, sequence (P25929 whole entry): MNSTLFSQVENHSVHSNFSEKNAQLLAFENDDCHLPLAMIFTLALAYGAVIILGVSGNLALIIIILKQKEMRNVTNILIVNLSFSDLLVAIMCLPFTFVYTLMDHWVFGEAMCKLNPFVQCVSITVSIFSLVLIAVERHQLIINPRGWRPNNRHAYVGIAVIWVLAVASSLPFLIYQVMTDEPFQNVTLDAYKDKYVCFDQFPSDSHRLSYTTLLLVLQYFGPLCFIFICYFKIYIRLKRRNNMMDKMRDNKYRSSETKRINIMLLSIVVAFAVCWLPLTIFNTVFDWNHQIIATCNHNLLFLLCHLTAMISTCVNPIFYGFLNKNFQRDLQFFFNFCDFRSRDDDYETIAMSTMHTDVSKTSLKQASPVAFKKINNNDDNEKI

[17] = target: Neuropeptide Y receptor type 2 (Homo sapiens, UniProt P49146); assay: Binding affinity to human recombinant neuropeptide Y2 receptor
[18] = target: Neurotensin receptor type 1 (Homo sapiens, UniProt P30989); assay: Binding affinity to human recombinant neurotensin NT1 receptor
Neurotensin receptor type 1, sequence (P30989 whole entry): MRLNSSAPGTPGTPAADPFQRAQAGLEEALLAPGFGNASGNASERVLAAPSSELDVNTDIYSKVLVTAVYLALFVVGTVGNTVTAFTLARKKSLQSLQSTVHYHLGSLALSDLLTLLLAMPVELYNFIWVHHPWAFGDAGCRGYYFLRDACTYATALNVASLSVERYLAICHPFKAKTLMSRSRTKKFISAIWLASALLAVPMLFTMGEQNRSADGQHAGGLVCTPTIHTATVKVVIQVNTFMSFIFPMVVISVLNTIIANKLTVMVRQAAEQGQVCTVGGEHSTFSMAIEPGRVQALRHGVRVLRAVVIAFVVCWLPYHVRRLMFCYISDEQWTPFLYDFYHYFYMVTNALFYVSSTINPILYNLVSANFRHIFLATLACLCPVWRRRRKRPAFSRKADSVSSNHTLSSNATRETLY

[19] = target: Sodium-dependent noradrenaline transporter (Homo sapiens, UniProt P23975); assay: Binding affinity to human recombinant norepinephrine transporter
[20] = target: 3',5'-cyclic-AMP phosphodiesterase 4D (Homo sapiens, UniProt Q08499); assay: Binding affinity to human recombinant PDE4D
3',5'-cyclic-AMP phosphodiesterase 4D, sequence (Q08499 whole entry): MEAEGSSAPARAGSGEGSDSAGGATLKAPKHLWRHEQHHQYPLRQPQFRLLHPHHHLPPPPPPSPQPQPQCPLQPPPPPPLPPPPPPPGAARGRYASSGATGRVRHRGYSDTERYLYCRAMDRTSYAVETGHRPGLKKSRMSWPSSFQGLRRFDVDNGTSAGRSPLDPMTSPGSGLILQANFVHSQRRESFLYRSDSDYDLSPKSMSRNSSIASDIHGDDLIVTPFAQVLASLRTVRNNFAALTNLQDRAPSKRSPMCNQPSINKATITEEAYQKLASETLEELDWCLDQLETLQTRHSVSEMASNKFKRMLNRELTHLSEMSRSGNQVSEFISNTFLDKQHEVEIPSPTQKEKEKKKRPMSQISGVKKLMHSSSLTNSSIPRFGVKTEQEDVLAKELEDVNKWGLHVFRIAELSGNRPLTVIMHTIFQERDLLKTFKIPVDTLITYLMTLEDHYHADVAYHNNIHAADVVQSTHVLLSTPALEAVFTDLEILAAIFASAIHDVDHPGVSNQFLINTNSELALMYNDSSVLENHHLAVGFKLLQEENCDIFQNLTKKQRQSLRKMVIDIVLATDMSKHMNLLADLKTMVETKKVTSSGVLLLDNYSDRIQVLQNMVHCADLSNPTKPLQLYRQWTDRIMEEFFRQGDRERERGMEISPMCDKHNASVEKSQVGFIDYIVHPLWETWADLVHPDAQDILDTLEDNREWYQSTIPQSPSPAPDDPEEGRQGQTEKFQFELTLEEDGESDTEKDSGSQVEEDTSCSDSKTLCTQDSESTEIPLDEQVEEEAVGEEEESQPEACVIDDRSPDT

[21] = target: 5-hydroxytryptamine receptor 2C (Homo sapiens, UniProt P28335); assay: Binding affinity to human recombinant serotonin 5HT2C receptor
[22] = target: Thromboxane A2 receptor (Homo sapiens, UniProt P21731); assay: Binding affinity to human recombinant thromboxane A2 receptor
Thromboxane A2 receptor, sequence (P21731 whole entry): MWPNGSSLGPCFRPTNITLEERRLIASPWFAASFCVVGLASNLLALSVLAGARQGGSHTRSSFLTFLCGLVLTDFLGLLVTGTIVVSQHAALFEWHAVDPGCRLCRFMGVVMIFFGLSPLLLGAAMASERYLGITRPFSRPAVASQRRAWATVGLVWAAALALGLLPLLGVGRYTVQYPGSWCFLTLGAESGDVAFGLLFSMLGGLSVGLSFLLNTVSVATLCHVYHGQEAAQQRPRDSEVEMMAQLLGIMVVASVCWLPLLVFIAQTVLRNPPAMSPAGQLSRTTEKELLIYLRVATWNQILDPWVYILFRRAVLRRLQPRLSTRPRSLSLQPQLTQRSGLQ

[23] = target: Vasopressin V2 receptor (Homo sapiens, UniProt P30518); assay: Binding affinity to human recombinant vasopressin V2 receptor
[24] = AUC (0 to infinity) in CD1 mouse at 5.4 mg/kg, iv; type: ADME, organism-based; parameters: time infinity, dose 5.4 mg/kg, route intravenous; settings: plasma
[25] = Clearance in CD1 mouse at 5.4 mg/kg, iv; type: ADME, organism-based; parameters: dose 5.4 mg/kg, route intravenous; settings: in vivo
[26] = Cmax in CD1 mouse at 24.6 mg/kg, po; type: ADME, organism-based; parameters: dose 24.6 mg/kg, route oral; settings: in vivo
[27] = Tmax in CD1 mouse at 24.6 mg/kg, po; type: ADME, organism-based; parameters: dose 24.6 mg/kg, route oral; settings: in vivo
[28] = AUC (0 to infinity) in CD1 mouse at 24.6 mg/kg, po; type: ADME, organism-based; parameters: time infinity, dose 24.6 mg/kg, route oral; settings: plasma
[29] = Volume of distribution at steady state in Wistar rat at 5 mg/kg, iv; type: ADME, organism-based; parameters: dose 5 mg/kg, route intravenous; settings: in vivo, read-out: Vdss
[30] = Clearance in Wistar rat at 5 mg/kg, iv; type: ADME, organism-based; parameters: dose 5 mg/kg, route intravenous; settings: in vivo
[31] = Cmax in Wistar rat at 23.7 mg/kg, po; type: ADME, organism-based; parameters: dose 23.7 mg/kg, route oral; settings: in vivo
[32] = Tmax in Wistar rat at 23.7 mg/kg, po; type: ADME, organism-based; parameters: dose 23.7 mg/kg, route oral; settings: in vivo
[33] = AUC (0 to infinity) in Wistar rat at 23.7 mg/kg, po; type: ADME, organism-based; parameters: time infinity, dose 23.7 mg/kg, route oral; settings: plasma
[34] = Intrinsic clearance in human liver microsome; type: ADME; settings: liver microsomes
[35] = test system: Plasmodium berghei; assay: Antimalarial activity against Plasmodium berghei GFP ANKA infected in NMRI mice (Mus musculus) assessed as survival at 10 mg/kg, perorally administered as single dose as single dose 24 hrs post infection for 1 day measured 72 hrs post infection; type: functional; settings: route oral
[36] = test system: Plasmodium berghei; assay: Antimalarial activity against Plasmodium berghei GFP ANKA infected in NMRI mice (Mus musculus) assessed as cure rate at 100 mg/kg, perorally administered as single dose 24 hrs post infection for 1 day measured 30 days post infection; type: functional; settings: route oral
[37] = test system: Plasmodium berghei; assay: Antimalarial activity against Plasmodium berghei GFP ANKA infected in NMRI mice (Mus musculus) assessed as survival at 50 mg/kg, perorally administered through 0.5% MCM/0.1%solutol HS15 formulation 24 hrs post infection for 3 days measured 96 hrs post infection; type: functional; settings: route oral
[38] = test system: Plasmodium falciparum; assay: Antimalarial activity against Plasmodium falciparum Dd2 after 72 hrs by SYBR green based fluorescence assay; type: functional, organism-based; settings: Dd2, 72 h
[39] = test system: Mus musculus; assay: Toxicity in Plasmodium berghei GFP ANKA infected NMRI mice (Mus musculus) assessed as reduction in parasitemia dosed in ETPGS formulation 1 day postinfection measured 72 hrs post infection; type: organism-based; settings: in vivo
[40] = test system: Plasmodium falciparum; assay: microbe, parasite or virus in culture; settings: Dd2, 72 h

C[C@H]1Cc2c([nH]c3cc(Cl)c(F)cc23)[C@@]2(N1)C(=O)Nc1ccc(Cl)cc12 [CIPARGAMIN]
inhibition [1]: Active
inhibition at 0.0016 µM [2]: > 90%
IC50 [3]: 0.001 µM
IC50 [4]: > 30 µM
IC50 [5]: > 30 µM
IC50 [6]: > 30 µM
IC50 [7]: > 30 µM
IC50 [8]: > 30 µM
IC50 [9]: > 10 µM
IC50 [10]: > 10 µM
IC50 [11]: > 10 µM
IC50 [12]: > 30 µM
IC50 [13]: > 10 µM
IC50 [14]: > 10 µM
IC50 [15]: > 10 µM
IC50 [16]: > 10 µM
IC50 [17]: > 10 µM
IC50 [18]: > 10 µM
IC50 [19]: > 10 µM
IC50 [20]: > 10 µM
IC50 [21]: > 10 µM
IC50 [22]: > 30 µM
IC50 [23]: > 30 µM
AUC(0-inf) [24]: 23.9 µM·h
clearance [25]: 9.75 mL/min/kg
Cmax [26]: 9.17 µM
Tmax [27]: 1 h
AUC(0-inf) [28]: 139 µM·h
Vd [29]: 3.04 L/kg
clearance [30]: 3.48 mL/min/kg
Cmax [31]: 11.7 µM
Tmax [32]: 8 h
AUC(0-inf) [33]: 524 µM·h
CLint scaled [34]: 8.67 mL/min/kg
mean survival time at 10 mg/kg [35]: 13.3 days
Activity [36]: 100%
Survival [37]: 30 days
IC50 [38]: 0.00044 µM
Activity [39]: Non-toxic
IC50 [40]: 0.0028 µM
